{"source": "paper PMC3899525", "about": "(Cell, 2013)", "molecular_target": "T1, Gr21a/Gr63a heteromeric CO2 receptor (ab1C neuron) (Drosophila melanogaster, UniProt Q9VPT1+Q9VZL7)", "T1 sequence (Q9VPT1 1-447)": "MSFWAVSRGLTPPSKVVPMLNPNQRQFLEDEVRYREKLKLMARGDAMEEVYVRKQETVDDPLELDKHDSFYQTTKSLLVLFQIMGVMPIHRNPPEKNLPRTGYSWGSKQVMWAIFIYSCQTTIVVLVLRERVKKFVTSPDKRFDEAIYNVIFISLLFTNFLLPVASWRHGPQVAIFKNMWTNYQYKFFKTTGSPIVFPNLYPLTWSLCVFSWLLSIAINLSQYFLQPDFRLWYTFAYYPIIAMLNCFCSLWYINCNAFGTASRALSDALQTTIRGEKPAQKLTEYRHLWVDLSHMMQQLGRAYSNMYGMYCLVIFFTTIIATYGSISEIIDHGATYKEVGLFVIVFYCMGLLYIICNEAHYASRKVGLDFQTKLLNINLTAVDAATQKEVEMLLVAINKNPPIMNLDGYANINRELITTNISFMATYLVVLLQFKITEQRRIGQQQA", "T1 sequence (Q9VZL7 1-512)": "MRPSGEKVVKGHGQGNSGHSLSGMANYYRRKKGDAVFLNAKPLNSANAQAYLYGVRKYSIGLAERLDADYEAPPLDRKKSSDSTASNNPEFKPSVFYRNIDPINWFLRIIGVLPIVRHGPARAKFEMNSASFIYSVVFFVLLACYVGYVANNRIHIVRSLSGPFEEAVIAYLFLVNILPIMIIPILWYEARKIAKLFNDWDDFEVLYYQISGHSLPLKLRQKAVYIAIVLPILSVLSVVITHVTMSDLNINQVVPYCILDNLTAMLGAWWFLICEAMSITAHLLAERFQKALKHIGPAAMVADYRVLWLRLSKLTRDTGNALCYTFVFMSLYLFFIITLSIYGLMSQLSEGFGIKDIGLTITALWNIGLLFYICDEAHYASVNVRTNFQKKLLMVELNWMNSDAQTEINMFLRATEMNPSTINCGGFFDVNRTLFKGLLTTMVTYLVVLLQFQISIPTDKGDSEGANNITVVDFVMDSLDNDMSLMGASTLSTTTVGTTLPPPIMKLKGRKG", "test": "single-sensillum recording of ab1C neuron", "assay_type": "cell-based", "conditions": "inhibitor; orco mutant flies; native neuron in vivo", "data": [{"smiles": "CCOC(=O)C(C)=O", "note": "[ethyl pyruvate]", "values": [{"measurement": "single-sensillum recording of ab1C neuron", "value": "the cpA inhibitor ethyl pyruvate also effectively inhibited the ab1C neuron"}]}]}
